In patent EP4806900A2, “RAS INHIBITORS” (Revolution Medicines, Inc., priority 2019, dated 2021) one finds IC50 data, which are given here for eleven compounds.

Structures are written as SMILES.

In general, IC50 refers to the concentration at which inhibition is half-maximal.

For the first assay, the system named is NCI-H358 (K-Ras G12C). Briefly: CellTiter-Glo cell viability assay, NCI-H358. In kind it is cell-based, human. The note with it: Homo sapiens, NCI-H358, Table 5; read-out: H358 Cell Viability assay data (K-Ras G12C, IC50). In a few lines:
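Compounds dispensed directly onto plated NCI-H358 cells; plates equilibrated to room temperature on day 5 before luminescence read-out. Signal normalized to mean DMSO control (%) and fitted by four-parameter logistic.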
(In ATP-based viability assays light output follows the ATP content of the culture.)
In the case of `C=CC(=O)N1CC[C@H](C(=O)N(C)[C@H](C(=O)N[C@H]2Cc3cccc(c3)-c3ccc4c(c3)c(c(-c3cccnc3[C@H](C)OC)n4CC)CC(C)(C)COC(=O)[C@@H]3CCCN(N3)C2=O)C(C)C)C1` [Compound A114], the IC50 lay within 0.1 to 1 µM.

Staying with this assay, now noted: Homo sapiens, NCI-H358, read-out: H358 Cell Viability assay data (K-Ras G12C, IC50, uM), Table 5.
As for `C=CC(=O)Nc1cnc(C(=O)N(C)[C@H](C(=O)N[C@H]2Cc3cccc(c3)-c3ccc4c(c3)c(c(-c3cccnc3[C@H](C)OC)n4CC)CC(C)(C)COC(=O)[C@@H]3CCCN(N3)C2=O)C(C)C)n1C` (atropisomer, axis not shown) [Compound A525], the IC50 is < 0.01 µM.
Same read-out and setting: to `CO[C@@H](COC1CN(C(=O)C#CC(C)(C)N(C)C)C1)C(=O)N[C@H]1Cc2cccc(c2)-c2ccc3c(c2)c(c(-c2cccnc2[C@H](C)OC)n3CC(F)(F)F)CC(C)(C)COC(=O)[C@@H]2CCCN(N2)C1=O` [Compound A556] belongs < 0.01 µM.

The same assay, now with this note: Table 5; read-out: H358 Cell Viability assay data (K-Ras G12C, IC50).
For the compound `CCn1c(-c2cccnc2COC)c2c3cc(ccc31)-c1cc(O)cc(c1)C[C@H](NC(=O)[C@H](C(C)C)N(C)C(=O)C1CN(C(=O)/C=C/CN(C)C)C1)C(=O)N1CCC[C@H](N1)C(=O)OCC(C)(C)C2` [Compound A71, (2S)-2-(1-{1-[(2E)-4-(dimethylamino)but-2-enoyl]azetidin-3-yl}-N-methylformamido)-N-[(8S,14S)-22-ethyl-4-hydroxy-21-[2-(methoxymethyl)pyridin-3-yl]-18,18-dimethyl-9,15-dioxo-16-oxa-10,22,28-triazapentacyclo[18.5.2.1^2,6.1^10,^14.0^23,^27]nonacosa-1(26),2,4,6(29),20,23(27),24-heptaen-8-yl]-3-methylbutanamide], the IC50 was in the range of 0.1 to 1 µM.
Turning to `C=CC(=O)N1CC[C@H](C(=O)N(C)[C@H](C(=O)N[C@H]2Cc3cc(N)cc(c3)-c3ccc4c(c3)c(c(-c3ccccc3CCOC)n4CC)CC(C)(C)COC(=O)[C@@H]3CCCN(N3)C2=O)C(C)C)C1` [Compound A2, (2S)-N-[(8S,14S)-4-amino-22-ethyl-21-[2-(2-methoxyethyl)phenyl]-18,18-dimethyl-9,15-dioxo-16-oxa-10,22,28-triazapentacyclo[18.5.2.1^2,6.1^10,^14.0^23,^27]nonacosa-1(26),2,4,6(29),20,23(27),24-heptaen-8-yl]-3-methyl-2-{N-methyl-1-[(3S)-1-(prop-2-enoyl)pyrrolidin-3-yl]formamido}butanamide], the IC50 is > 1 µM.
Regarding `C=CC(=O)N1C[C@H](C)[C@H](C(=O)N(C)[C@H](C(=O)N[C@H]2Cc3cc(O)cc(c3)-c3ccc4c(c3)c(c(-c3ccccc3CN(C)C)n4CC)CC(C)(C)COC(=O)[C@@H]3CCCN(N3)C2=O)C(C)C)C1` [Compound A52], the 50% inhibitory concentration (IC50) is 0.01 to 0.1 µM.
Regarding `C=CC(=O)N1CC2(CCN([C@H](C(=O)N[C@H]3Cc4cc(O)cc(c4)-c4ccc5c(c4)c(c(-c4ccccc4CCOC)n5CC)CC(C)(C)COC(=O)[C@@H]4CCCN(N4)C3=O)C(C)C)C2=O)C1` [Compound A31], the IC50 lay within 0.01 to 0.1 µM.
`CCn1c(-c2cnccc2COC)c2c3cc(ccc31)-c1cc(O)cc(c1)C[C@H](NC(=O)[C@H](C(C)C)N(C)C(=O)[C@H]1CCN(C(=O)C#CCN(C)C)C1)C(=O)N1CCC[C@H](N1)C(=O)OCC(C)(C)C2` [Compound A88]: the IC50 was < 0.01 µM.
Consider `C=CC(=O)N1CC[C@H](C(=O)N(C)[C@H](C(=O)N[C@H]2Cc3cc(O)cc(c3)-c3ccc4c(c3)c(c(-c3ccccc3CCOC)n4CC)CC(C)(C)COC(=O)[C@@H]3CCCN(N3)C2=O)C2CCOCC2)C1` [Compound A6], for which the IC50 fell in the range of 0.1 to 1 µM.
Same read-out and setting: to `C=CC(=O)N1C[C@H](C)[C@H](C(=O)N(C)[C@H](C(=O)N[C@H]2Cc3cc(O)cc(c3)-c3ccc4c(c3)c(c(-c3ccccc3CN(C)C)n4CC)CC(C)(C)COC(=O)[C@@H]3CCCN(N3)C2=O)C2CCCC2)C1` [Compound A43] belongs 0.01 to 0.1 µM; to `C=CC(=O)N1CC[C@H](C(=O)N(C)[C@H](C(=O)N[C@H]2Cc3cc(O)cc(c3)-c3ccc4c(c3)c(c(-c3cccnc3COC)n4CC)CC(C)(C)COC(=O)[C@@H]3CCCN(N3)C2=O)C2CCCC2)C1` [Compound A55], < 0.01 µM.
